Results reported in patent US20080299589A1, “Methods and Materials for Examining the P13k/Akt Pathway in Gliomas and Prostate Cancers” (The Regents of the University of California, priority 2003, published 2008).
Entries after “also recorded” stand apart in the source; their conditions may differ.

Columns and labels:
[1] = system: LNCaP cells; assay: Immunostaining of formalin fixed, paraffin embedded LNCaP cell pellets with phospho-specific antibodies after inhibitor treatment; assay type: cell-based; conditions: 18 hours, vs vehicle
Experimental: (§1) Cells (LNCaP, DU 145, HT 129) were grown in culture (DMEM supplemented with 10% FBS, L-Glutamine, Penicillin and Streptomycin) and exposed to vehicle, the PI3K inhibitor LY294002 (30 μM), the mTOR inhibitor, CCI-779 (20 nM) for 18 hours or the MEK inhibitor, UO126 (20 μM) combined with 100 ng/ml of EGF for 20 minutes. Cell pellets were prepared, formalin fixed and embedded in paraffin, then cut for immunohistochemical staining with phospho-AKT, -S6, -FKHR and -ERK antibodies. We performed antigen retrieval with a 10 mM sodium citrate buffer (pH 6.0) for 30 minutes in a pressure cooker. Peroxidase activity was quenched with 3% hydrogen peroxide in water. Sections were stained overnight at 4° C. with monoclonal antibodies to PTEN at 1:300 (clone 6H2.1; Cascade Bioscience, Winchester, Mass. This antibody recognizes a 99 amino acid epitope at the C-terminus of PTEN) and polyclonal phosphorylation-specific antibodies to p-AKT (Set 473), p-FKHR which recognizes phosphorylated forms of the forkhead family of transcription factors FKHR (FOXO 1), FKHRL1 (FOXO 3a) and AFX (FOXO 4), p-S6 Ribosomal protein (Set 235/236), p-ERK (Thr-202/Tyr-204) at 1:100 (Cell Signaling Technology, Beverly, Mass.). This was followed by application of biotinylated secondary antibodies (Vector) at 1:1000 dilution for 30 minutes and Avidin-biotin complex (Elite ABC; Vector). Negative control slides received normal mouse serum (DAKO) as the primary antibody. Diaminobenzidine tetrahydrochloride (DAB) was used as the enzyme substrate to visualize specific antibody localization for PTEN and p-AKT; Vector NovaRed (Vector) for p-FKHR, p-S6 and p-ERK. Slides were counterstained with Harris hematoxylin. For immunofluorescence assays, post fixation in paraformaldehyde, the cells were probed with Total AKT (1:50) and p-AKT (1:250); the secondary antibodies Alexa Flour anti-rabbit and anti-mouse (1:1000) [Molecular Probes, Eugene, Oreg.]. Following incubation, images were captured on a Nikon fluorescence microscope and then overlaid using Adobe Photoshop software. […]

[2] = system: PTEN deficient prostate cancer cell lines; conditions: PTEN deficient vs wild type prostate cancer cell lines; cited from earlier work
[3] = system: PTEN deficient prostate cancer xenografts; conditions: PTEN deficient vs wild type prostate cancer xenografts; cited from earlier work
[4] = system: HT129 cells; assay: p-ERK staining in EGF-induced HT129 cells; assay type: cell-based
Experimental: as §1, with “This was followed by application of biotinylated secondary antibodies (Vector) at 1:1000 dilution for 30 minutes and Avidin-biotin complex (Elite ABC; Vector). Negative control slides received normal mouse serum (DAKO) as the primary antibody. Diaminobenzidine tetrahydrochloride (DAB) was used as the enzyme substrate to visualize specific antibody localization for PTEN and p-AKT; Vector NovaRed (Vector) for p-FKHR, p-S6 and p-ERK. Slides were counterstained with Harris hematoxylin. For immunofluorescence assays, post fixation in paraformaldehyde, the cells were probed with Total AKT (1:50) and p-AKT (1:250); the secondary antibodies Alexa Flour anti-rabbit and anti-mouse (1:1000) [Molecular Probes, Eugene, Oreg.].” left out

[5] = system: SKMG-3 cells; conditions: unstimulated SKMG-3 cells, minimal growth conditions; cited from earlier work

Structure (SMILES): CO[C@H]1C[C@@H]2CC[C@@H](C)[C@@](O)(O2)C(=O)C(=O)N2CCCC[C@H]2C(=O)O[C@H]([C@H](C)C[C@@H]2CC[C@@H](OC(=O)C(C)(CO)CO)[C@H](OC)C2)CC(=O)[C@H](C)/C=C(\C)[C@@H](O)[C@@H](OC)C(=O)[C@H](C)C[C@H](C)/C=C/C=C/C=C/1C [CCI-779]
- staining intensity of p-AKT ([1]; CCI-779 20 nM): no effect
- staining intensity of p-S6 (S6 phosphorylation) ([1]; CCI-779 20 nM): downregulation of S6 phosphorylation; also recorded: decreased staining intensity
- sensitivity to pharmacologic inhibition of mTOR compared to wild type counterparts [2]: more sensitive
- sensitivity to pharmacologic inhibition of mTOR compared to wild type counterparts [3]: more sensitive

Structure (SMILES): O=c1cc(N2CCOCC2)oc2c(-c3ccccc3)cccc12 [LY294002]
- staining intensity of p-ERK ([1]; LY294002 30 μM): no effect
- p-ERK staining ([4]; HT129 cells induced with EGF 100 ng/ml, LY294002): lack of inhibition

Structure (SMILES): CNc1cc2c(Nc3cccc(Br)c3)ncnc2cn1 [PD158780]
- constitutive phosphorylation of Erk [5]: reduces the constitutive phosphorylation
- constitutive phosphorylation of the receptor (EGFR) [5]: reduces the constitutive phosphorylation

Structure (SMILES): N#CC(=C(/N)Sc1ccccc1N)/C(C#N)=C(/N)Sc1ccccc1N [UO-126]
- p-ERK staining ([4]; HT129 cells induced with EGF 100 ng/ml for 20 minutes, UO-126 20 μM for 20 minutes): decreased staining; also recorded: reduced
